Measured values taken from patent publication US20110105324A1, “Herbicidal Compounds Based on N-Azinyl-N-Phenylsulfonylureas” (BAYER CROPSCIENCE AG, priority 2008, published 2011).

Key:
Alopecurus myosuroides [1] = experiment: Pre-emergence herbicidal activity, greenhouse pot test; format: in vivo; conditions: 80 g/ha, scored visually after approx. 3 weeks, 100% = plants have died, 0% = like control
Description: (§1) Seeds of monocotyledonous or dicotyledonous weed plants or crop plants are placed in sandy loam in wood fiber pots and covered with soil. The compounds according to the invention, which are formulated as wettable powders (WP), are then applied to the surface of the soil cover in the form of an aqueous suspension or emulsion with a water application rate of 600 l/ha (converted), with addition of 0.2% wetting agent.
(§2) After the treatment, the pots are placed in a greenhouse and maintained under good growth conditions for the test plants. After approximately 3 weeks, the activity of the preparations is scored visually in comparison with untreated controls (herbicidal activity in percent (%): 100% activity=the plants have died, 0% activity=like control plants).

Lolium multiflorum = experiment: as above; format: in vivo; conditions: 80 g/ha, scored visually after approx. 3 weeks, 100% = plants have died, 0% = like control
Description: as §1, §2

Matricaria inodora [2] = experiment: Post-emergence herbicidal activity, greenhouse pot test; format: in vivo; conditions: one-leaf stage, 80 g/ha, scored visually after approx. 3 weeks, 100% = plants have died, 0% = like control
Method: (§3) Seeds of monocotyledonous or dicotyledonous weed plants or crop plants are placed in sandy loam in wood fiber pots, covered with soil and grown in a greenhouse under good growth conditions. 2 to 3 weeks after sowing, the test plants are treated in the one-leaf stage. The compounds according to the invention, which are formulated as wettable powders (WP), are then sprayed onto the green plant parts in the form of an aqueous suspension or emulsion with a water application rate of 600 l/ha (converted) with addition of 0.2% of wetting agent. After the test plants have been left to stand in the greenhouse for approximately 3 weeks under optimal growth conditions, the activity of the preparation is scored visually in comparison with untreated controls (herbicidal activity in percent (%): 100% activity=the plants have died, 0% activity=like control plants).

Cyperus esculentus [3] = experiment: as above; format: in vivo; conditions: one-leaf stage, 80 g/ha, scored visually after approx. 3 weeks, 100% = plants have died, 0% = like control
Method: as §3

Alopecurus myosuroides [4] = experiment: as above; format: in vivo; conditions: one-leaf stage, 80 g/ha, scored visually after approx. 3 weeks, 100% = plants have died, 0% = like control
Method: as §3

Echinochloa crus-galli = experiment: as above; format: in vivo; conditions: one-leaf stage, 80 g/ha, scored visually after approx. 3 weeks, 100% = plants have died, 0% = like control
Method: as §3

Amaranthus retroflexus = experiment: as above; format: in vivo; conditions: one-leaf stage, 80 g/ha, scored visually after approx. 3 weeks, 100% = plants have died, 0% = like control
Method: as §3

Polygonum convolvulus = experiment: as above; format: in vivo; conditions: one-leaf stage, 80 g/ha, scored visually after approx. 3 weeks, 100% = plants have died, 0% = like control
Method: as §3

Abutilon theophrasti = experiment: as above; format: in vivo; conditions: one-leaf stage, 80 g/ha, scored visually after approx. 3 weeks, 100% = plants have died, 0% = like control
Method: as §3

Pharbitis purpurea [5] = experiment: Pre-emergence herbicidal activity, greenhouse pot test; format: in vivo, Pharbitis/Ipomoea purpurea; conditions: 80 g/ha, scored visually after approx. 3 weeks, 100% = plants have died, 0% = like control
Description: as §1, §2

Pharbitis purpurea [6] = experiment: Post-emergence herbicidal activity, greenhouse pot test; format: in vivo, Pharbitis (Ipomoea) purpurea; conditions: one-leaf stage, 80 g/ha, scored visually after approx. 3 weeks, 100% = plants have died, 0% = like control
Method: as §3

Viola tricolor [7] = experiment: Pre-emergence herbicidal activity, greenhouse pot test; format: in vivo; conditions: 80 g/ha, scored visually after approx. 3 weeks, 100% = plants have died, 0% = like control
Description: as §1, §2

Matricaria inodora [8] = experiment: as above; format: in vivo; conditions: 80 g/ha, scored visually after approx. 3 weeks, 100% = plants have died, 0% = like control
Description: as §1, §2

Cyperus esculentus [9] = experiment: as above; format: in vivo; conditions: 80 g/ha, scored visually after approx. 3 weeks, 100% = plants have died, 0% = like control
Description: as §1, §2

Stellaria media = experiment: as above; format: in vivo; conditions: 80 g/ha, scored visually after approx. 3 weeks, 100% = plants have died, 0% = like control
Description: as §1, §2

Veronica persica = experiment: as above; format: in vivo; conditions: 80 g/ha, scored visually after approx. 3 weeks, 100% = plants have died, 0% = like control
Description: as §1, §2

Viola tricolor [10] = experiment: Post-emergence herbicidal activity, greenhouse pot test; format: in vivo; conditions: one-leaf stage, 80 g/ha, scored visually after approx. 3 weeks, 100% = plants have died, 0% = like control
Method: as §3

SMILES	herbicidal activity ALOMY (Alopecurus myosuroides [1])	herbicidal activity LOLMU (Lolium multiflorum)	herbicidal activity MATIN (Matricaria inodora [2])	herbicidal activity CYPES (Cyperus esculentus [3])	herbicidal activity ALOMY (Alopecurus myosuroides [4])	herbicidal activity ECHCG (Echinochloa crus-galli)	herbicidal activity AMARE (Amaranthus retroflexus)	herbicidal activity POLCO (Polygonum convolvulus)	herbicidal activity ABUTH (Abutilon theophrasti)	herbicidal activity PHBPU (Pharbitis purpurea [5])	herbicidal activity PHBPU (Pharbitis purpurea [6])	herbicidal activity VIOTR (Viola tricolor [7])	herbicidal activity MATIN (Matricaria inodora [8])	herbicidal activity CYPES (Cyperus esculentus [9])	herbicidal activity STEME (Stellaria media)	herbicidal activity VERPE (Veronica persica)	herbicidal activity VIOTR (Viola tricolor [10])
Cc1cc(C)nc(NC(=O)NS(=O)(=O)c2ccccc2OC(C)C(F)(F)F)n1 (stereo not shown) [Compound I-1, N-[(4,6-Dimethylpyrimidin-2-yl)carbamoyl]-2-(2,2,2-trifluoro-1-methylethoxy)-benzenesulfonamide]	80%	80%	80%	80%	90%	80%	80%	90%	90%	–	–	–	–	–	–	–	–
COc1cc(C)nc(NC(=O)NS(=O)(=O)c2ccccc2OC(C)C(F)(F)F)n1 (stereo not shown) [Compound I-2]	90%	90%	80%	80%	90%	80%	–	90%	90%	80%	80%	80%	80%	100%	80%	80%	90%
COc1cc(Cl)nc(NC(=O)NS(=O)(=O)c2ccccc2OC(C)C(F)(F)F)n1 (stereo not shown) [Compound I-3]	80%	80%	90%	80%	80%	–	–	80%	90%	80%	90%	–	80%	100%	–	80%	80%
COc1cc(OC)nc(NC(=O)NS(=O)(=O)c2ccccc2OC(C)C(F)(F)F)n1 (stereo not shown) [Compound I-4]	80%	80%	90%	80%	90%	80%	–	80%	100%	80%	80%	80%	80%	90%	–	80%	90%
COc1nc(C)nc(NC(=O)NS(=O)(=O)c2ccccc2OC(C)C(F)(F)F)n1 (stereo not shown) [Compound I-5, N-[(4-Methoxy-6-methyl-1,3,5-triazin-2-yl)carbamoyl]-2-(2,2,2-trifluoro-1-methylethoxy)benzenesulfonamide]	90%	–	90%	–	90%	–	100%	90%	90%	80%	90%	80%	80%	–	80%	90%	90%
COc1nc(NC(=O)NS(=O)(=O)c2ccccc2OC(C)C(F)(F)F)nc(OC)n1 (stereo not shown) [Compound I-6]	80%	–	90%	–	–	–	80%	90%	90%	80%	90%	80%	80%	100%	80%	80%	90%
